Experimental data: patent US11287416B2, “Cancer” (NEURO-BIO LTD, priority 2016, dated 2022)
Entries after “also recorded” stand apart in the source; their conditions may differ. Square brackets hold non-standard residues; d marks the D form. Peptide text beside a SMILES is read from it. Bpa = N[C@@H](Cc1ccc(C(=O)c2ccccc2)cc1)C(=O)O; Phe(4-NH2) = Nc1ccc(C[C@H](N)C(=O)O)cc1; hArg = N=C(N)NCCCC[C@H](N)C(=O)O

Columns and labels:
Type in all cases: cell-based
[1] = system: rat basal forebrain; experiment: voltage-sensitive dye imaging (VSDI) on brain slices; settings: for magnitude (summed fluorescence) of evoked responses, compound alone: 4 μM in perfusate, no T30, rat basal forebrain slices
Protocol: Male Wistar rats (14 days old) were anaesthetised using isoflurane ([…], 100% w/w). Isoflurane was applied to the cotton bed at the bottom of an anaesthetic chamber (glass box 20×15×15 cm) where rats were then placed for approximately 45 s until complete anaesthesia was reached. The hind paw of each anaesthetised rat was pinched to check for the appropriate depth of anaesthesia. Upon confirmation of anaesthesia, rats were quickly decapitated, with the brain being quickly removed and immersed in ice cold oxygenated ‘slicing’ artificial cerebrospinal fluid (aCSF in mmol: 120 NaCl, 5 KCL, 20 NaHCO3, 2.4 CaCl2 2 MgSO4, 1.2 KH2PO4, 10 glucose, 6.7 HEPES salt and 3.3 HEPES acid; pH=7.1). Coronal slices (400 μm thick) were then taken from a block of brain containing the basal forebrain, namely the MS-dBB complex (between +9.20 and +9.48 mm Interaural and +0.48 and +0.2 mm Bregma, FIG. 4A) and the somatosensory barrel field cortex (SiBF, between +8.08 and +7.20 mm Interaural and −0.92 mm and −1.80 mm Bregma) (Paxinos and Watson, 1998) using a Vibratome (Leica VT1000S). Slices were then transferred to a bubbler pot containing oxygenated aCSF at room temperature (recording aCSF in mmol: 124 NaCl, 5 KCL, 20 NaHCO3, 2.4 CaCl2 2 MgSO4, 1.3 KH2PO4, 10 glucose; pH=7.4) which was identical to that used in VSDI (voltage sensitive dye imaging) recording. Slices were then left for approximately 1-1.5 hours before preparing them for VSD staining.
Slices were placed in a dark, high humidity chamber filled with aCSF bubbled with 95% O2, 5% CO2. Once there, the dye solution (4% 0.2 mM styryl dye pyridinium 4-[2-[6-(dibutylamino)-2-napthalenyl]-ethenyl]-1-(3-sulfopropyl)hydroxide(Di-4-NEPPS), Invitrogen, Paisley, UK in 48% aCSF, 48% foetal bovine serum, 3.5% DMSO and 0.4% cremophore EL) (Tominaga et al., 2000) was applied to the slices for 20-25 minutes before being transferred back to a bubbler pot containing oxygenated aCSF kept at room temperature for 30 minutes.
When starting the VSDI recordings, slices were placed in the recording bath on a small piece of filter paper to allow the flow of oxygenated aCSF on the underside of the slice and in order to keep it alive. The slice was then weighed down by a home-made plastic grid that was placed on top of the slice. The perfusing bath solution was heated to 30±1° C. by a stage heater. A concentric bipolar stimulating electrode (FHC, Maine, USA) was placed in the ventral diagonal band of the basal forebrain with stimulation being set to 30V. For the acquisition of VSD data, 2 dimensional images, equivalent to 88×60 pixels, were recorded using the MiCamo2 High Resolution camera (Brain Vision, Japan) with BV_Analyze imaging software. Acquisition of images was coupled to Spike2 V4.23 software (CED Ltd, Cambridge, UK) in order to align the image capture with the stimulation protocol (every 28 s with 30 repeats) via the Micro 1401 MkII. (CED Ltd, Cambridge, UK). Light was generated using an Osram halogen xenophot 64634 HLX EFR Display/Optic lamp and was filtered to emit green (530±10 nm) light using a MHF-G150LR (Moritex Corporation) coupled to the MiCamo2 High resolution imaging system and filtered the emitted fluorescence through a >590 nm high pass filter.
All drug and peptide stocks were prepared in frozen aliquots prior to experiments. For the production of perfusion solutions, stock solutions were thawed and added to recording aCSF as appropriate and bath applied at a constant rate of 1.5 ml/min perfusion using the Minipulse 3 peristaltic pump (Gilson Scientific Ltd., Bedfordshire, UK).

[2] = system: AChE activity, PC12 cells; settings: for protection against T30-induced AChE activity: T30 1 μM combined with blocker
Protocol: AChE activity was measured using the Ellman reagent that measures the presence of thiol groups as a result of AChE activity. In the case of the G4 experiment, AChE (G4) activity was tested alone and also together with either NBP14 or Tri peptides. PC12 cells were plated the day before the experiment as for the cell viability assay. Cells were treated with T30 (1 μM) alone or combined with NBP14 or Tri peptide (0.5 μM). After treatment, supernatant (perfusate) of each treatment was collected and 25 μL from is each condition were added to a new flat bottomed 96 well plate followed by the addition of 175 μl of Ellman reagent (Solution A: KH2PO4 139 mM and K2HPO4 79.66 mM, pH 7.0; solution B (substrate): Acetylthiocholine Iodide 11.5 mM; Solution C (Reagent): 5,5′-dithiobis (2-nitrobenzoic acid) 8 mM and NaHCO15 mM). The Ellman reagent was prepared as a mixture of the 3 solutions in a ratio 33(A):3(B):4(C). Absorbance measurements were taken for an interval of 60 minutes across experiments at 405 nm in a Vmax plate reader (Molecular devices, Wokingham, UK).
(§1) In each of the different cell techniques, the statistics analysis was performed with the average of the percentage values of 3 or more experiments. Comparisons between multiple treatment groups and the same control were performed by one-way analysis of variance (ANOVA) and Tukey's post-hoc tests using GraphPAD Instat (GraphPAD software, San Diego, Calif.). Statistical significance was taken at a p value<0.05.

[3] = system: alpha7 nicotinic receptors, PC12 cells; experiment: Calcium fluorometry (Fluo-8), PNU282987-induced calcium influx in PC12 cells; settings: PNU282987 1 μM; for protection against T30-induced calcium influx: T30 combined with blocker
Protocol: PC12 cells were plated in 200 μl of Dulbecco's Modified Eagle's medium (DMEM) plus 2 mM of L-glutamine medium the day before the experiment in 96 well plates. On the day of the experiment, the Fluo-8 solution (Abcam) was prepared as described by the provider by adding 20 μl of Fluo-8 in the assay buffer that contains 9 ml of Hank's Balanced Salt Solution (HBSS) and 1 ml of pluronic F127 Plus. Subsequently, 100 μl of growth medium was removed and 100 μl of Fluo-8 solution were added. Treatments with T30 in conjunction with NBP14 or Tri peptides were added and incubated for 30 minutes in the incubator and 30 minutes room temperature. After 1 h, the plate was placed in the fluorescence plate reader (Fluostar, Optima, BMG Labtech, Ortenberg, Germany). Before reading the fluorescence, PNU282987 1 μM, an alpha7 specific agonist of the nicotinic receptors, was prepared and placed in the Fluostar injector. For each well, the reading was formed by a basal fluorescence reading followed by PNU282987 injection that induced an increase of calcium via nicotinic receptors.
as §1

[4] = system: astroglia; experiment: cell proliferation assay (trophic-toxic effects); settings: for toxic effect in cell proliferation assay: high concentration, 10 μM
[5] = co-perfusion 4 μM blocker with 2 uM T30

Row | Compound | magnitude (summed fluorescence) of evoked responses, compound alone [1] | magnitude (summed fluorescence) of evoked responses, compound alone ([1]; listed as Triol) | blocking of T30-induced effects on basal forebrain activity [1, 5] | protection against T30-induced AChE activity [2] | protection against T30-induced calcium influx [3] | blocking of T30-induced effects on basal forebrain activity ([1]; co-perfusion 2 μM blocker with 2 μM T30, n=29) | cell proliferation, trophic effect on astroglia ([4]; 1 pM peptide) [%] | cell proliferation, trophic effect on astroglia ([4]; 10 pM peptide) [%] | toxic effect in cell proliferation assay [4] | effect of T30 alone on evoked VSDI signal ([1]; T30 2 uM, basal forebrain of p14 rats) | AChE activity ([2]; peptide alone, 1 μM) | calcium influx ([3]; peptide alone, 1 μM)
1 | CC(=O)N[C@@H](Cc1ccc2ccccc2c1)C(=O)N[C@@H](Cc1ccc(N)cc1)C(=O)N[C@@H](Cc1c[nH]c2ccccc12)C(N)=O [Tri02] (HELM PEPTIDE1{[ac].[O=C([C@H](Cc1ccc2ccccc2c1)N[*:1])[*:2]].[Nc1ccc(C[C@H](N[*:1])C(=O)[*:2])cc1].W.[am]}$$$$V2.0) | small alterations | recapitulates results seen with application of 4 μM NBP14 | not found to protect against T30-induced deviations from baseline; also recorded: some efficacy in blocking those T30-induced deviation | protects against the toxic effects of T30 | protects against the toxic effects of T30 | – | – | – | – | – | – | –
2 | CC(=O)N[C@@H](Cc1ccc(C(=O)c2ccccc2)cc1)C(=O)N[C@@H](CCCCNC(=N)N)C(=O)N[C@@H](Cc1ccc(N)cc1)C(N)=O [Tri04] (Ac-[Bpa]-[hArg]-[Phe(4-NH2)]-NH2) | – | – | totally block the T30-induced effects; also recorded: recapitulates results previously seen with the application of 4 μM NBP14; also recorded: significant effect reversing T30 activity | – | protects the toxic effects of T30 by reducing calcium influx | significant effect on basal forebrain population activity; also recorded: reversal of the inhibitory effect of T30; also recorded: increase in network activity; also recorded: protective role | – | – | – | – | – | –
3 | AEFHRWSSYMVHWK (listed as Homo sapiens) [Compound T14, toxic 14 amino acid peptide from the C-terminus of acetylcholinesterase] | – | – | – | – | – | – | 96±5 | 121±8 | equal toxic effects | – | – | –
4 | KAEFHRWSSYMVHWKNQFDHYSKQDRCSDL (listed as Homo sapiens) [Compound T30, Acetylcholinesterase (AChE) C-terminus 30 amino acid peptide] | – | – | – | – | – | – | 120±4 | 135±9 | equal toxic effects | greatest deviation; also recorded: net inhibition | increases | increases
5 | c[AEFHRWSSYMVHWK] (head-to-tail cyclised; listed as Homo sapiens) [NBP14] | small, non-significant alterations | – | totally block the T30-induced effects | protects against these toxic effects | protects against these toxic effects | – | – | – | – | – | – | –
